Measured values taken from US7595313B2, “Nitric oxide donating diuretic compounds, compositions and methods of use” (NicOx, S.A., priority 2005, dated 2009).

Legend:
Male Wistar rats = assay: Determination of the diuresis (urine volume over 6 hours after oral dosing); format: in vivo, rat
Method: Procedures were approved by the Institutional Animal Care and Use Committee of NitroMed, Inc. Male Wistar rats (180-200 g) were purchased from Charles River Laboratories (Kingston, N.Y. or Raleigh, N.C.) and allowed to acclimate in the facility for a period of at least 72 h. Rats were randomly housed 2-3 per cage in a light-controlled room with a 12 hour light/dark cycle and allowed ad libitum access to food and water.
Prior to the experiment, each rat was placed in a metabolic cage and allowed to acclimate for a period of 24-48 hours with food and water ad libitum. During this acclimation period, rats received mash food instead of pellet food to prevent contamination of the urine samples. All rats were fasted for 18 hours prior to experimentation. In addition, water was removed 90 minutes prior to oral dosing with test compound or vehicle.
The test compounds were prepared immediately prior to dosing in 0.5% Methocel (F4M Premium Hydroxypropyl Methylcellulose, lot # PF12012N12; Dow Chemical Company, USA) and homogenized with a glass/Teflon pestle motorized homogenizer. Gently vortexed test compounds were administered intragastrically (p.o.; 30 mg/kg or 3 mg/kg) at a dose volume of 3 ml per rat using an 18 gauge gavage needle. Urine volume (ml) was monitored and urine was collected for subsequent electrolyte analysis over a 6 hours period. […] Data are expressed as mean ±SEM; n=6 or 7.

[1] = p.o. 30 mg/kg in 0.5% Methocel, male Wistar rats, 6 hours, mean ± SEM, n=6 or 7
[2] = p.o. 3 mg/kg in 0.5% Methocel, male Wistar rats, 6 hours, mean ± SEM, n=6 or 7

Structure (SMILES)	Urine collected in 6 hours (mL) (30 mg/kg) (Male Wistar rats; rat, in vivo, po)	melting point	Urine collected in 6 hours (mL) (30 mg/kg) (Male Wistar rats; [1])	Urine collected in 6 hours (mL) (3 mg/kg) (Male Wistar rats; [2])	Urine collected in 6 hours (mL) (3 mg/kg) (Male Wistar rats; rat, in vivo, po)
CC(CO[N+](=O)[O-])(CO[N+](=O)[O-])C(=O)N1CCC2(CC1)Nc1cc(C(F)(F)F)c(S(N)(=O)=O)cc1S(=O)(=O)N2 [Example 16c, Spiro[2H-1,2,4-benzothiadiazine-3(4H), 4′-piperidine]-7-sulfonamide, 1′-[2-methyl-3-(nitrooxy)-2-[(nitrooxy)methyl]-1-oxopropyl]-6-(trifluoromethyl)-, 1,1-dioxide]	4.3 ± 0.3	> 140 °C (dec.)	–	–	–
CC(C)(CO[N+](=O)[O-])C(=O)N1CCC2(CC1)Nc1cc(C(F)(F)F)c(S(N)(=O)=O)cc1S(=O)(=O)N2 [Example 19b, Spiro[2H-1,2,4-benzothiadiazine-3(4H), 4′-piperidine]-7-sulfonamide, 1′-[2,2-dimethyl-3-(nitrooxy)-1-oxopropyl]-6-(trifluoromethyl)-, 1,1-dioxide]	–	152 to 156 °C (dec.)	2.5 ± 0.4	–	–
NS(=O)(=O)c1cc2c(cc1Cl)NC(CCCCCO[N+](=O)[O-])=NS2(=O)=O [Example 20c, 4H-1,2,4-Benzothiadiazine-7-sulfonamide, 6-chloro-3-[5-(nitrooxy)pentyl]-, 1,1-dioxide]	–	170 to 172 °C	3.0 ± 0.9	–	–
NS(=O)(=O)c1cc2c(cc1Cl)NC(CCCC(=O)NC[C@@H](CO[N+](=O)[O-])O[N+](=O)[O-])=NS2(=O)=O [Example 21b, 4H-1,2,4-Benzothiadiazine-3-butanamide, 7-(aminosulfonyl)-N-[(2S)-2,3-bis(nitrooxy)propyl]-6-chloro-, 1,1-dioxide]	2.7 ± 0.3	140 °C (dec.)	–	–	–
CC(CO[N+](=O)[O-])(CO[N+](=O)[O-])C(=O)N1CCC2(CC1)Nc1cc(Cl)c(S(N)(=O)=O)cc1S(=O)(=O)N2 [Example 23, Spiro[2H-1,2,4-benzothiadiazine-3(4H), 4′-piperidine]-7-sulfonamide, 6-chloro-1′-[2-methyl-3-(nitrooxy)-2-[(nitrooxy)methyl]-1-oxopropyl]-, 1,1-dioxide]	1.7 ± 0.6	142 to 145 °C	–	–	–
NS(=O)(=O)c1cc2c(cc1Cl)NC(CCCCCO)NS2(=O)=O (stereo not drawn) [Example 24c, 2H-1,2,4-Benzothiadiazine-7-sulfonamide, 6-chloro-3,4-dihydro-3-(5-hydroxypentyl)-, 1,1-dioxide]	–	190 °C	7.2 ± 0.7	8.6 ± 0.4	–
NS(=O)(=O)c1cc2c(cc1Cl)NC(CCCCO)NS2(=O)=O (stereo not drawn) [Example 26, 2H-1,2,4-Benzothiadiazine-7-sulfonamide, 6-chloro-3,4-dihydro-3-(4-hydroxybutyl)-, 1,1-dioxide]	–	202 to 211 °C	6.0 ± 0.4	–	–
NS(=O)(=O)c1cc2c(cc1Cl)NCN(CCO)S2(=O)=O [Example 32b, 2H-1,2,4-Benzothiadiazine-7-sulfonamide, 6-chloro-3,4-dihydro-2-(2-hydroxyethyl)-, 1,1-dioxide]	–	226 to 228 °C	–	5.1 ± 0.2	–
NS(=O)(=O)c1cc2c(cc1Cl)NCN(Cc1cccc(CO[N+](=O)[O-])c1)S2(=O)=O [Example 33, 2H-1,2,4-Benzothiadiazine-7-sulfonamide, 6-chloro-3,4-dihydro-2-[[3-[(nitrooxy)methyl]phenyl]methyl]-, 1,1-dioxide]	–	136 to 139 °C (dec.)	–	3.0 ± 0.4	–
NS(=O)(=O)c1cc2c(cc1Cl)NCN(CC(=O)NCCCO[N+](=O)[O-])S2(=O)=O [Example 34, 2H-1,2,4-Benzothiadiazine-2-acetamide, 7-(aminosulfonyl)-6-chloro-3,4-dihydro-N-[3-(nitrooxy)propyl]-, 1,1-dioxide]	–	138 to 141 °C	–	2.8 ± 0.3	–
Cc1c(CN2CNc3cc(Cl)c(S(N)(=O)=O)cc3S2(=O)=O)no[n+]1[O-] [Example 37c, 2H-1,2,4-Benzothiadiazine-7-sulfonamide, 6-chloro-3,4-dihydro-2-[(4-methyl-5-oxido-1,2,5-oxadiazol-3-yl)methyl]-, 1,1-dioxide]	–	235 to 237 °C	–	2.1 ± 0.6	–
CN(CCO[N+](=O)[O-])C(=O)CN1CNc2cc(Cl)c(S(N)(=O)=O)cc2S1(=O)=O [Example 38, 2H-1,2,4-Benzothiadiazine-2-acetamide, 7-(aminosulfonyl)-6-chloro-3,4-dihydro-N-methyl-N-[2-(nitrooxy)ethyl]-, 1,1-dioxide]	–	160 to 165 °C	–	4.5 ± 0.6	–
NS(=O)(=O)c1cc2c(cc1Cl)NCN(CCCCO)S2(=O)=O [Example 41, 2H-1,2,4-Benzothiadiazine-7-sulfonamide, 6-chloro-3,4-dihydro-2-(4-hydroxybutyl)-, 1,1-dioxide]	–	96 to 99 °C	–	5.5 ± 0.6	–
NS(=O)(=O)c1cc2c(cc1Cl)NCN(CCCC(CO[N+](=O)[O-])O[N+](=O)[O-])S2(=O)=O (stereo not drawn) [Example 43b, 2H-1,2,4-Benzothiadiazine-7-sulfonamide, 2-[4,5-bis(nitrooxy)pentyl]-6-chloro-3,4-dihydro-, 1,1-dioxide]	–	49 to 53 °C	–	–	3.0 ± 0.6
CN(CCO[N+](=O)[O-])CC1Nc2cc(Cl)c(S(N)(=O)=O)cc2S(=O)(=O)N1 (stereo not drawn) [Example 45, 2H-1,2,4-Benzothiadiazine-7-sulfonamide, 6-chloro-3,4-dihydro-3-[[methyl[2-(nitrooxy)ethyl]amino]methyl]-, 1,1-dioxide]	–	175 to 180 °C	–	4.8 ± 1.3	–
NS(=O)(=O)c1cc2c(cc1Cl)NC(CCCCCCO[N+](=O)[O-])NS2(=O)=O (stereo not drawn) [Example 47c, 2H-1,2,4-Benzothiadiazine-7-sulfonamide, 6-chloro-3,4-dihydro-3-[6-(nitrooxy)hexyl]-, 1,1-dioxide]	–	161 °C	–	8.3 ± 0.6	–
NS(=O)(=O)c1cc2c(cc1Cl)NCN(CC[C@@H](CO[N+](=O)[O-])O[N+](=O)[O-])S2(=O)=O [Example 48b, 2H-1,2,4-Benzothiadiazine-7-sulfonamide, 2-[(3S)-3,4-bis(nitrooxy)butyl]-6-chloro-3,4-dihydro-, 1,1-dioxide]	–	162 to 163 °C	–	–	4.8 ± 0.8
NS(=O)(=O)c1cc2c(cc1Cl)NC(CC(=O)N(CCO[N+](=O)[O-])CCO[N+](=O)[O-])NS2(=O)=O (stereo not drawn) [Example 49e, 2H-1,2,4-Benzothiadiazine-3-acetamide, 7-(aminosulfonyl)-6-chloro-3,4-dihydro-N,N-bis[2-(nitrooxy)ethyl]-, 1,1-dioxide]	–	94 to 97 °C	–	–	2.5 ± 0.5
NS(=O)(=O)c1cc2c(cc1Cl)NC(c1cc(CO[N+](=O)[O-])cc(CO[N+](=O)[O-])c1)NS2(=O)=O (stereo not drawn) [Example 50c, 2H-1,2,4-Benzothiadiazine-7-sulfonamide, 3-[3,5-bis[(nitrooxy)methyl]phenyl]-6-chloro-3,4-dihydro-, 1,1-dioxide]	–	121 to 124 °C	–	–	3.3 ± 0.6
